According to the OligoGym collection:
Several values for one entry are separate records, joined by “and”; a condition that tells them apart may be missing. Equal values may be shown once. HELM strings list units from the 5' end as sugar, base in round brackets, then linkage (d deoxyribose, r ribose, m 2'-O-methyl, p phosphodiester). Methylation of C is not given here. [moe] = 2'-O-(2-methoxyethyl) (MOE); [cEt] = constrained ethyl (cEt); [sp] = phosphorothioate linkage

Biological target: HBV
Settings: ASO

Q: Which results are given for “RNA1{[moe](G)[sp].[cEt](C)[sp].d(A)[sp].d(G)[sp].d(A)[sp].d(G)[sp].d(G)[sp].d(T)[sp].d(G)[sp].d(A)[sp].d(A)[sp].d(G)[sp].[cEt](C)[sp].[moe](G)[sp].[cEt](A)[sp].[moe](A)}$$$$V2.0”?
A: target mRNA inhibition (HepG2, 0.0092593 µM): 21%; target mRNA inhibition (HepG2, 0.0277778 µM): 48%; target mRNA inhibition (HepG2, 0.07 µM): 80% and 85%; target mRNA inhibition (HepG2, 0.0833333 µM): 74%; target mRNA inhibition (HepG2, 0.25 µM): 88%

Q: Which target mRNA inhibition (HepG2, 0.07 µM) does the source give for “RNA1{[moe](A)[sp].[cEt](A)[sp].[cEt](G)[sp].d(G)[sp].d(C)[sp].d(A)[sp].d(C)[sp].d(A)[sp].d(G)[sp].d(C)[sp].d(T)[sp].d(T)[sp].d(G)[sp].[cEt](G)[sp].[cEt](A)[sp].[moe](G)}$$$$V2.0” here?
A: Its target mRNA inhibition is 32% and 15%.

Q: “RNA1{[moe](T)[sp].[moe](G)[sp].[moe](A)[sp].d(A)[sp].d(G)[sp].d(C)[sp].d(G)[sp].d(A)[sp].d(A)[sp].d(G)[sp].d(T)[sp].d(G)[sp].[moe](C)[sp].[moe](A)[sp].[moe](C)[sp].[moe](A)[sp].[moe](C)}$$$$V2.0” was tested. Which target mRNA inhibition (HepG2, 0.07 µM) did it give?
A: Its target mRNA inhibition is 74% and 60%.

Q: “RNA1{[moe](A)[sp].[moe](G)[sp].[moe](T)[sp].[moe](T)[sp].[moe](C)[sp].d(C)[sp].d(G)[sp].d(C)[sp].d(A)[sp].d(G)[sp].d(T)[sp].d(A)[sp].d(T)[sp].d(G)[sp].[moe](G)[sp].[moe](A)[sp].[moe](T)}$$$$V2.0” was tested. Which target mRNA inhibition (HepG2, 0.07 µM) did it give?
A: The target mRNA inhibition was 56% and 49%.

Q: For “RNA1{[moe](G)[sp].[moe](G)[sp].[moe](T)[sp].[moe](G)[sp].[moe](A)[sp].[moe](A)[sp].d(G)[sp].d(C)[sp].d(G)[sp].d(A)[sp].d(A)[sp].d(G)[sp].d(T)[sp].d(G)[sp].d(C)[sp].[moe](A)[sp].[moe](C)}$$$$V2.0”, which target mRNA inhibition (HepG2, 0.07 µM) is on record?
A: The target mRNA inhibition was 85% and 67%.

Q: For “RNA1{[moe](G)[sp].[moe](C)[sp].[moe](A)[sp].d(C)[sp].d(T)[sp].d(A)[sp].d(G)[sp].d(T)[sp].d(A)[sp].d(A)[sp].d(A)[sp].d(C)[sp].[moe](T)[sp].[moe](G)[sp].[moe](A)[sp].[moe](G)[sp].[moe](C)}$$$$V2.0”, which target mRNA inhibition (HepG2, 0.07 µM) is on record?
A: The target mRNA inhibition was 74% and 68%.

Q: With “RNA1{[moe](A)[sp].[moe](A)[sp].[moe](C)[sp].d(C)[sp].d(A)[sp].d(C)[sp].d(T)[sp].d(G)[sp].d(A)[sp].d(A)[sp].d(C)[sp].d(A)[sp].[moe](A)[sp].[moe](A)[sp].[moe](T)[sp].[moe](G)[sp].[moe](G)}$$$$V2.0” as the substance, how does the target mRNA inhibition (HepG2, 0.07 µM) read?
A: The target mRNA inhibition was 57% and 51%.

Q: For “RNA1{[moe](G)[sp].[moe](A)[sp].[moe](G)[sp].[moe](G)[sp].d(T)[sp].d(G)[sp].d(A)[sp].d(A)[sp].d(G)[sp].d(C)[sp].d(G)[sp].d(A)[sp].d(A)[sp].[moe](G)[sp].[moe](T)[sp].[moe](G)[sp].[moe](C)}$$$$V2.0”, which target mRNA inhibition (HepG2, 0.07 µM) is on record?
A: Its target mRNA inhibition is 63% and 54%.

Q: How did the target mRNA inhibition (HepG2, 0.07 µM) turn out when “RNA1{[moe](G)[sp].[moe](A)[sp].[moe](G)[sp].d(T)[sp].d(T)[sp].d(C)[sp].d(C)[sp].d(G)[sp].d(C)[sp].d(A)[sp].d(G)[sp].d(T)[sp].[moe](A)[sp].[moe](T)[sp].[moe](G)[sp].[moe](G)[sp].[moe](A)}$$$$V2.0” was run?
A: The target mRNA inhibition was 61% and 62%.

Q: How did the target mRNA inhibition (HepG2, 0.07 µM) turn out when “RNA1{[moe](T)[sp].[moe](G)[sp].[moe](A)[sp].[moe](A)[sp].[moe](G)[sp].d(C)[sp].d(G)[sp].d(A)[sp].d(A)[sp].d(G)[sp].d(T)[sp].d(G)[sp].d(C)[sp].d(A)[sp].[moe](C)[sp].[moe](A)[sp].[moe](C)}$$$$V2.0” was run?
A: Its target mRNA inhibition is 13% and 38%.

Q: Which target mRNA inhibition (HepG2, 0.07 µM) does the source give for “RNA1{[moe](C)[sp].[moe](T)[sp].[moe](A)[sp].[moe](G)[sp].[moe](T)[sp].d(A)[sp].d(A)[sp].d(A)[sp].d(C)[sp].d(T)[sp].d(G)[sp].d(A)[sp].d(G)[sp].d(C)[sp].[moe](C)[sp].[moe](A)}$$$$V2.0” here?
A: The target mRNA inhibition was 71% and 63%.

Q: “RNA1{[moe](C)[sp].[moe](T)[sp].[moe](G)[sp].d(G)[sp].d(A)[sp].d(G)[sp].d(C)[sp].d(C)[sp].d(A)[sp].d(C)[sp].d(C)[sp].d(A)[sp].[moe](G)[sp].[moe](C)[sp].[moe](A)[sp].[moe](G)}$$$$V2.0” was tested. Which target mRNA inhibition (HepG2, 0.07 µM) did it give?
A: Its target mRNA inhibition is 42% and 38%.

Q: For “RNA1{[moe](A)[sp].[moe](A)[sp].[moe](C)[sp].[moe](T)[sp].d(G)[sp].d(G)[sp].d(A)[sp].d(G)[sp].d(C)[sp].d(C)[sp].d(A)[sp].d(C)[sp].d(C)[sp].[moe](A)[sp].[moe](G)[sp].[moe](C)[sp].[moe](A)}$$$$V2.0”, which target mRNA inhibition (HepG2, 0.07 µM) is on record?
A: Its target mRNA inhibition is 64% and 58%.

Q: How did the target mRNA inhibition (HepG2, 0.07 µM) turn out when “RNA1{[moe](A)[sp].[moe](A)[sp].[moe](C)[sp].d(T)[sp].d(G)[sp].d(G)[sp].d(A)[sp].d(G)[sp].d(C)[sp].d(C)[sp].d(A)[sp].d(C)[sp].[moe](C)[sp].[moe](A)[sp].[moe](G)[sp].[moe](C)[sp].[moe](A)}$$$$V2.0” was run?
A: The target mRNA inhibition was 69% and 58%.

Q: For “RNA1{[moe](C)[sp].[moe](C)[sp].[moe](G)[sp].[moe](C)[sp].[moe](A)[sp].[moe](G)[sp].d(T)[sp].d(A)[sp].d(T)[sp].d(G)[sp].d(G)[sp].d(A)[sp].d(T)[sp].d(C)[sp].d(G)[sp].[moe](G)[sp].[moe](C)}$$$$V2.0”, which target mRNA inhibition (HepG2, 0.07 µM) is on record?
A: The target mRNA inhibition was 90% and 66%.

Q: “RNA1{[moe](A)[sp].[moe](G)[sp].[moe](C)[sp].[moe](G)[sp].[moe](A)[sp].d(A)[sp].d(G)[sp].d(T)[sp].d(G)[sp].d(C)[sp].d(A)[sp].d(C)[sp].d(A)[sp].d(C)[sp].[moe](G)[sp].[moe](G)}$$$$V2.0” was tested. Which target mRNA inhibition (HepG2, 0.07 µM) did it give?
A: Its target mRNA inhibition is 79% and 74%.

Q: Which target mRNA inhibition (HepG2, 0.0092593 µM) does the source give for “RNA1{[moe](C)[sp].[moe](C)[sp].d(A)[sp].d(C)[sp].d(T)[sp].d(G)[sp].d(A)[sp].d(A)[sp].d(C)[sp].d(A)[sp].d(A)[sp].[moe](A)[sp].[moe](T)[sp].[moe](G)[sp].[moe](G)[sp].[moe](C)}$$$$V2.0” here?
A: The target mRNA inhibition was 8%.

Q: What about the target mRNA inhibition (HepG2, 0.0277778 µM) of the same substance?
A: Its target mRNA inhibition is 27%.

Q: What about the target mRNA inhibition (HepG2, 0.07 µM) of the same substance?
A: Its target mRNA inhibition is 74% and 70%.

Q: And the target mRNA inhibition (HepG2, 0.0833333 µM)?
A: Its target mRNA inhibition is 54%.

Q: And the target mRNA inhibition (HepG2, 0.25 µM)?
A: Its target mRNA inhibition is 76%.

Q: “RNA1{[moe](A)[sp].[moe](G)[sp].d(G)[sp].d(C)[sp].d(A)[sp].d(T)[sp].d(A)[sp].d(G)[sp].d(C)[sp].d(A)[sp].d(G)[sp].[moe](C)[sp].[moe](A)[sp].[moe](G)[sp].[moe](G)[sp].[moe](A)[sp].[moe](T)}$$$$V2.0” was tested. Which target mRNA inhibition (HepG2, 0.07 µM) did it give?
A: Its target mRNA inhibition is 75% and 68%.
